Assay results reported in US10945685B2, “System and method for normalizing standardized uptake values in brain positron emission tomography (PET) images” (New York University, priority 2018, dated 2021).

Key:
tau [1] = experiment: Tau PET tracer binding, SUVR with cerebellar cortex as reference, AD patients and NL subjects; assay type: in vivo, human; conditions: mean (SD); for GMSUVR (Cerebral GM tracer retention) / WMSUVR (Cerebral WM tracer retention): all subjects of the tracer (AD and NL)
Description: Subjects come from two sources. 18 subjects (9 AD patients, and 9 healthy elderly study participants) underwent ^18F-THK5351 PET scans from the memory clinic of Tohoku University Hospital. ^18F-AV-1451 scans were obtained from the ADNI (Alzheimer's Disease Neuroimaging Initiative) database (adni.loni.usc.edu). 32 Subjects (20 NL and 12 AD) with ^18F-AV-1451 were selected from ADNI, that were matched to the age and MMSE in participants of the THK5351 group.
PET imaging was performed using an Eminence STARGATE PET scanner (Shimadzu, Kyoto, Japan). After intravenous injection of ^18F-THK5351 (185 MBq), dynamic PET images were obtained for 60 min. acquisition matrix is 128×128×79 and voxels size is 2×2×2.6 mm. ^18F-THK5351 was synthesized. MRI was performed on all participants. T1 weighted MR images were obtained using a SIGNA 1.5-Tesla machine (General Electric, Milwaukee, Wis.). In T1-weighted MRI, a 3D volumetric acquisition of a T1-weighted gradient echo sequence produced a gapless series of thin axial sections by using a vascular TOF SPGR sequence (echo time/repetition time, 2.4/50 ms; flip angle, 45°; acquisition matrix, 256×256; 1 excitation; field of view, 22 cm; slice thickness, 2.0 mm).
AV-1451 data were downloaded from ADNI with series description “AV1451 Coreg, Avg, Std Img and Vox Siz, Uniform Resolution”. An intravenous injection of 10 mCi ^18F-AV-1451 (370 MBq) is followed by a saline flush. At approximately 75 minutes following injection, a continuous 30-minute brain scan (6 frames of 5-minute duration) was performed after a CT or transmission scan for attenuation correction. PET imaging was performed using GEMINI TF TOF 16 (Philips Medical Systems), with 6 frames; acquisition matrix 128×128×90; pixel spacing 2×2 mm; slice thickness 2 mm.
Using Free-Surfer (V. 5.1, http://surfer.nmr.mgh.harvard.edu) ROI's were determined for the cerebral gray and white matter, the cerebellar hemisphere gray matter, caudate nuclear, thalamus, ponds and subcortical regions (including frontal, parietal, occipital, medial temporal cortex and lateral temporal lobe). MRI T1 images were coregistered to the mean PET images for each participant by using statistical parametric-mapping software (SPM12; Wellcome Department of Imaging Neuroscience, UCL, London, UK).
Standardized uptake value (SUV) images were obtained by normalizing tissue radioactivity concentration by injected dose and bodyweight. Estimates of tau deposition were determined for THK53151 with the 40-60 min SUV and for AV1451 with for the 80-100 min SUV. Standard SUVR was generated by using cerebellar cortex as reference. To control the variation of SUVR measures in THK5351 and AV1451 PET caused by the off-target binding in reference region, each subject's SUV images were first transferred into standardized SUVP images, using the Peak-alignment method (as described above). In order to compare the regional SUV distribution patterns on group level, the whole brain probability density function (PDFwb) of SUVP were computed for each subject by normalizing the histograms of a subject's SUVP with the total number of intracranial voxels of that subject. Finally, the group average whole brain probability density function (PDFwb) were computed by averaging the individual subjects' PDFwb within 4 compare groups (2 tracers×2 conditions). One important advantage of SUVP over SUVR is that the Peak-alignment method standardized the range of whole brain SUV (marked in FIG. 2) into [−3,3] approximately, regardless of tracer or disease condition, thus allowing universal cutoff for different tracers, while SUVR cutoffs are tracer-dependent (e.g. 1.5 for THK and 1.19 for AV1451). Here, 1.5 is used for SUVP cutoff, representing 1.5 times std from whole brain mode. The positive binding percentage: PBP=(number of positive bring voxels)/(total number of voxels), are computed for both SUVP and SUVR in different brain tissues. […]

tau [2] = experiment: AD-NL classification from tau PET: ROC AUC and AD-NL ratio of PBP; assay type: in vivo, human; conditions: for AD-NL ratio R = (average PBP of AD group)/(average PBP of NL group), SUVP / AD-NL ratio R = (average PBP of AD group)/(average PBP of NL group), SUVR: Table 5, region not stated; for AD-NL ratio (R), SUVP PBP / AD-NL ratio (R), SUVR PBP: temporal lobe
Description: In another embodiment, the average PBP of a particular diseased (or abnormal) group (e.g., an AD group) for a particular ROI may be compared to the PBP of a group of normal control (NL) subjects. For example, a ratio (R) of PBP may be obtained by: R=(average PBP of diseased or abnormal group)/(average PBP of NL group)
Standardized uptake value (SUV) images were obtained by normalizing tissue radioactivity concentration by injected dose and bodyweight. Estimates of tau deposition were determined for THK53151 with the 40-60 min SUV and for AV1451 with for the 80-100 min SUV. Standard SUVR was generated by using cerebellar cortex as reference. To control the variation of SUVR measures in THK5351 and AV1451 PET caused by the off-target binding in reference region, each subject's SUV images were first transferred into standardized SUVP images, using the Peak-alignment method (as described above). In order to compare the regional SUV distribution patterns on group level, the whole brain probability density function (PDFwb) of SUVP were computed for each subject by normalizing the histograms of a subject's SUVP with the total number of intracranial voxels of that subject. Finally, the group average whole brain probability density function (PDFwb) were computed by averaging the individual subjects' PDFwb within 4 compare groups (2 tracers×2 conditions). One important advantage of SUVP over SUVR is that the Peak-alignment method standardized the range of whole brain SUV (marked in FIG. 2) into [−3,3] approximately, regardless of tracer or disease condition, thus allowing universal cutoff for different tracers, while SUVR cutoffs are tracer-dependent (e.g. 1.5 for THK and 1.19 for AV1451). Here, 1.5 is used for SUVP cutoff, representing 1.5 times std from whole brain mode. The positive binding percentage: PBP=(number of positive bring voxels)/(total number of voxels), are computed for both SUVP and SUVR in different brain tissues.
To compare the classification accuracy of AD and NL using mean SUVR and PBP (SUVR and SUVP), the ROC curve was computed and the area under curve (AUC) was computed.
We also computed the diagnostic accuracy in terms of AUC, as specified in Method section. […] The AD-NL ratio obtained using (average PBP of AD group)/(average PBP of NL group).

| SMILES | SUVR, Basal ganglia (tau [1]; AD patients) | SUVR, Cerebral GM (tau [1]; AD patients) | SUVR, Cerebral WM (tau [1]; AD patients) | SUVR, Frontal cortex (tau [1]; AD patients) | SUVR, Occipital cortex (tau [1]; AD patients) | SUVR, Parietal cortex (tau [1]; AD patients) | SUVR, Temporal cortex (tau [1]; AD patients) | SUVR, Basal ganglia (tau [1]; NL subjects) | SUVR, Cerebral GM (tau [1]; NL subjects) | SUVR, Cerebral WM (tau [1]; NL subjects) | SUVR, Frontal cortex (tau [1]; NL subjects) | SUVR, Occipital cortex (tau [1]; NL subjects) | SUVR, Parietal cortex (tau [1]; NL subjects) | SUVR, Temporal cortex (tau [1]; NL subjects) | GMSUVR (Cerebral GM tracer retention) (tau [1]) | WMSUVR (Cerebral WM tracer retention) (tau [1]) | AD-NL ratio R = (average PBP of AD group)/(average PBP of NL group), SUVP (tau [2]) | AD-NL ratio R = (average PBP of AD group)/(average PBP of NL group), SUVR (tau [2]) | AD-NL ratio (R), SUVP PBP (tau [2]) | AD-NL ratio (R), SUVR PBP (tau [2]) |
| --- | --- | --- | --- | --- | --- | --- | --- | --- | --- | --- | --- | --- | --- | --- | --- | --- | --- | --- | --- | --- |
| CNc1ccc(-c2ccc3cc(OC[C@H](O)CF)ccc3n2)cn1 [THK5351] | 2.62(.26)^ | 1.55(.16)^+ | 1.78(.14)^+ | 1.38(.18) | 1.42(.16)^+ | 1.46(.12) | 1.88(.22)*^+ | 2.64(.31) | 1.39(.20) | 1.56(.20) | 1.32(.20) | 1.22(.13) | 1.30(.24) | 1.57(.21) | 1.47(0.19) | 1.67(0.20) | 3.1248 | 1.2747 | 2.39 | 1.25 |
| [18F]c1ccc(-c2ccc3c(c2)[nH]c2ccncc23)cn1 [AV-1451] | 1.30(.10) | 1.24(.25)^+ | 1.27(.18) | 1.18(.23) | 1.17(.13) | 1.25(.30) | 1.41(.35)*^+ | 1.30(.09) | 1.09(.09) | 1.18(.09) | 1.06(.07) | 1.09(.09) | 1.07(.10) | 1.18(.16) | 1.15(0.18) | 1.21(0.13) | 4.4004 | 1.3258 | 3.69 | 1.3 |
